Laboratory results from the NIST ThermoML archive (doi:10.1021/je049908l).
± gives the expanded uncertainty stated by the source.

Columns and labels:
[1] = Molar enthalpy of transition or fusion; details: Crystal; DSC
[2] = Crystal; DTA

- Molar enthalpy of transition or fusion [1]: 10.7 ± 0.693 kcal/mol
- Normal melting temperature [2]: 71.80 ± 2.1 °C
Compound: NC(C(=O)O)c1ccc(O)cc1.O=S(=O)(O)O (racemic) [DL-p-hydroxyphenylglycine sulfate]
